Data published in patent publication US20210285955A1, “METHODS AND REAGENTS FOR ANALYZING PROTEIN-PROTEIN INTERFACES” (Revolution Medicines, Inc., priority 2017, published 2021).
One block for each compound: values may come before it.

Tests used:
Format in all cases: binding
KRASGTP/S39C lite = target: T1, KRASGTP/S39C lite (Homo sapiens, UniProt P01116, C118S/C51S/C80L/G12V/S39C); assay: Conjugate formation (cross-linking) assessed by SDS-PAGE
T1 construct: KRASGTP/S39C lite (in house; residues 1-169 containing G12V/S39C/C51S/C80L/C118S); made in house
Protocol: General Protocol: This protocol describes a method for the formation of target protein-compound conjugates.
(§1) Experimental Protocol: A 1:2 molar ratio of target protein and compound are mixed together in 12.5 mM HEPES pH 7.4, 75 mM NaCl buffer containing 2% DMSO. The reaction is incubated at 37° C. for 30 min, followed by overnight incubation at room temperature. Cross-linking efficiency is assessed by SDS-PAGE gel. Conjugates migrate slower than non-cross-linked target protein. For thiol reactive compounds, the Cys specific attachment of the compound to the target protein can be further confirmed by SDS-PAGE after the addition of 100 mM DTT to the reaction mixture, which reduces the conjugate back into its components.
Experimental Protocol: A 1:2 molar ratio of KRASGTP/S39C lite and C2-FK506 are mixed together in 12.5 mM HEPES pH 7.4, 75 mM NaCl buffer containing 2% DMSO. The reaction is incubated at 37° C. for 30 min, followed by overnight incubation at room temperature. Cross-linking efficiency is assessed by SDS-PAGE gel. Attachment of C2-FK506 to Cysteine 39 on KRASGTP/S39C lite is also assessed by incubation of the reaction mixture with 100 mM DTT.

[1] = target: T2, KRASGTP/S39C lite and FKBP12 (Homo sapiens, UniProt P01116+P62942, C118S/C51S/C80L/G12V/S39C); assay: Ternary complex formation by SEC and SDS-PAGE; settings: 1:2:2 compound:FKBP12:KRAS, SEC profile and SDS-PAGE of elution peaks
T2 construct: KRASGTP/S39C lite (in house; residues 1-169 containing G12V/S39C/C51S/C80L/C118S); made in house
Protocol: (§2) A 1:2:2 molar ratio of compound, presenter protein, and target protein are mixed together in 12.5 mM HEPES pH 7.4, 75 mM NaCl buffer containing 2% DMSO. The reaction is incubated at 37° C. for 30 min, followed by overnight incubation at room temperature. Pure complex is isolated by Size Exclusion Chromatography (SEC) purification. The reaction mixture is directly injected on a Superdex 75 column (CV 120 mL) pre-equilibrated with buffer containing 12.5 mM HEPES pH 7.4, 75 mM NaCl. Complex elutes at a higher molecular weight than unreacted target protein and presenter protein. To confirm presence of complex in the elution peak, samples are assessed by SDS-PAGE.
Experimental Protocol: A 1:2:2 molar ratio of C2-Holt, FKBP12, and KRASGTP/S39C lite are mixed together in 12.5 mM HEPES pH 7.4, 75 mM NaCl buffer containing 2% DMSO. The reaction is incubated at 37° C. for 30 min, followed by overnight incubation at room temperature. Pure complex is isolated by Size Exclusion Chromatography (SEC) purification. The reaction mixture is directly injected on a Superdex 75 column (CV 120 mL) pre-equilibrated with buffer containing 12.5 mM HEPES pH 7.4, 75 mM NaCl. […] To confirm the presence of KRASGTP/S39C lite and FKBP12 in the elution peak, samples are also assessed by SDS-PAGE.

[2] = target: T3, PTP1BS187C lite and FKBP12 (Homo sapiens, UniProt P18031+P62942, C121S/C32S/C92V/S187C); assay: Ternary complex formation by SEC and SDS-PAGE; settings: 1:3:3 compound:FKBP12:PTP1B, SEC profile and SDS-PAGE of elution peaks
T3 construct: (in house; residues 1-293 containing C32S/C92V/C121S/S187C); made in house
T3 sequence (P18031 1-293 C32S/C92V/C121S/S187C limits assumed): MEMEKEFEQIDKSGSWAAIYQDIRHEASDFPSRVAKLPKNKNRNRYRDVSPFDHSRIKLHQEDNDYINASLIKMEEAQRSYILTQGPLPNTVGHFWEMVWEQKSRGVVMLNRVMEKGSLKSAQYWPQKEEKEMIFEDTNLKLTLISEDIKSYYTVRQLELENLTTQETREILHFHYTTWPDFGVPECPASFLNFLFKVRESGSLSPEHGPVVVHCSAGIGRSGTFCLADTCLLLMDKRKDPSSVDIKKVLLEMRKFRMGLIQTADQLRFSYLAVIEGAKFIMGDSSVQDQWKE
T3 sequence (P62942 whole entry, the tested form may be a part): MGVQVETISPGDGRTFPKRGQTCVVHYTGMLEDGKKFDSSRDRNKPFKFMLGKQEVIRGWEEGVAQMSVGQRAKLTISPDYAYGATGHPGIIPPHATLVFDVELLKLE
Protocol: as §2
Equipment: Mini-PROTEAN TGX Gel (Bio-Rad), Superdex 75 (GE Healthcare, CV 120 mL) Experimental Protocol: A 1:3:3 molar ratio of C3SLF, FKBP12, and PTPIBswc lite are mixed together in 12.5 mM HEPES pH 7.4, 75 mM NaCl buffer containing 4% DMSO. The reaction is incubated at 37° C. for 30 min, followed by overnight incubation at room temperature. Pure complex is isolated by Size Exclusion Chromatography (SEC) purification. The reaction mixture is directly injected on a Superdex 75 column (CV 120 mL) pre-equilibrated with buffer containing 12.5 mM HEPES pH 7.4, 75 mM NaCl. […] To confirm the presence of PTP1BS187C lite and FKBP12 in the elution peak, samples are also assessed by SDS-PAGE. […]

KRASGTP/G12C [3] = target: T4, KRASGTP/G12C (Homo sapiens, UniProt P01116+P62942, G12C); assay: Presenter dependency of disulfide cross-linking by mass spectrometry; settings: 2 μM KRAS, 10 μM ligand, 4 hours room temperature, MS
T4 construct: KRASGTP/G12C (in-house, residues 1-169); made in house
Protocol: This protocol describes methods to analyzing cross-linking efficiency using mass spectrometry and gel shift assay in effort to assess the presenter dependency of conjugate formation.
Experimental protocol: In order to follow the kinetics of disulfide crosslinking reactions, Agilent 6230 TOF-LC/MS and Agilent 1260 HPLC instruments employing a AdvanceBio RP-mAb C4 column (2.1×100 mm, 3.5 μm) and equipped with an auto-sampler were used. HPLC grade acetonitrile and water (each containing 1.0 mM ammonium formate and 1% formic acid by volume) were used as mobile phase with the following ramp: 0.6 ml/min flow rate, water:acetonitrile=95:5 from 0.0 to 13.0 min ramping to water:acetonitrile=5:95 from 13.0 to 17.0 min. Total time=17.0 min.
All crosslinking reactions were performed in 1.5 mL amber colored glass vials equipped with 0.5 mL glass inserts. A water-soluble peptide (SEQ ID NO: 1: […]) was employed as an internal standard. Although the actual sequence of the internal standard is inconsequential, choice of amino acid residues were critical to avoid interference in the crosslinking assays. […] All reactions and standard solutions were prepared in HEPES (pH 7.4, 1.0 mM MgCl2) buffer.
Prior to every reaction, a standard curve was obtained for the individual components using a series of standard solutions (an example of standard curve analysis for FKBP12 is shown in Table 3 below). Using the data from standard curve, μmol of protein samples were plotted against the ratio of areas (sample:std) and a linear fit (y=mx+c) was employed to obtain the slope and intercept. The value of slope and intercept involved in these standard curves were accounted for during evaluation of the substrate and product concentration before and during the course of the reaction. For every substrate/product, an initial injection was followed up by a blank injection to verify presence of any residual protein/reagents. Based on this analysis the sequence of auto-sampler can be adjusted to included appropriate number of blank injections for removal of residual components, if any. The MS spectra were analyzed using Agilent MassHunter v B.07.0 software.
In a representative experiment to assess the presenter dependency of ligand cross-linking on the target protein, KRASGTP/G12C and either C3 or C4SLF ligand were incubated in the presence or absence of FKBP12 at concentrations of 2 μM KRAS, 10 μM FKBP12, 10 μM C3 or C4SLF for 4 hours at room temperature in 12.5 mM HEPES pH 7.4, 75 mM NaCl, 1 mM MgCl2, 3% DMSO. Analysis of the amount of KRAS undergoing disulfide cross-linking with the ligand using the method above.

KRASGTP/G12C [4] = target: T4, KRASGTP/G12C; assay: Cross-linking gel shift assay (12% SDS-PAGE); settings: 60 μM KRAS, 180 μM FKBP12, 180 μM ligand, quenched by MMTS
Protocol: In parallel to mass spectrometry analysis, cross-linking reactions with C3 or […] were subjected to gel shift assay using 12% SDS-PAGE in the presence or absence of FKBP12 at the same experimental condition described above except that cross-linking reactions were set up at higher concentrations (60 μM KRAS, 180 μM FKBP12, and 180 μM C3 or […]) and they were quenched by MMTS to terminate the reaction.

[5] = target: T5, KRASGDP/S39C lite and CypAC52S (Homo sapiens, UniProt P01116+P62937, C118S/C51S/C52S/C80L/G12V/S39C); assay: Ternary complex formation by SEC and SDS-PAGE; settings: 1:2:2 compound:CypAC52S:KRAS, SEC profile and SDS-PAGE of elution peaks
T5 construct: KRASGDP/S39C lite (in house; residues 1-169 containing G12V/S39C/C51S/C80L/C118S); made in house
Protocol: as §2
Equipment: Mini-PROTEAN TGX Gel (Bio-Rad), Superdex 75 (GE Healthcare, CV 120 mL) Experimental Protocol: A 1:2:2 molar ratio of SFAC4DS, CypAC52S, and KRASGDP/S39C lite are mixed together in 12.5 mM HEPES pH 7.4, 75 mM NaCl buffer containing 2% DMSO. The reaction is incubated at 37° C. for 30 min, followed by overnight incubation at room temperature. Pure complex is isolated by Size Exclusion Chromatography (SEC) purification. The reaction mixture is directly injected on a Superdex 75 column (CV 120 mL) pre-equilibrated with buffer containing 12.5 mM HEPES pH 7.4, 75 mM NaCl. […] To confirm the presence of KRASGDP/S39C lite and CypAC52S in the elution peak, samples are also assessed by SDS-PAGE.

CypAC52S = target: T6, CypAC52S (Homo sapiens, UniProt P62937, C52S); assay: Presenter cross-linking assessed by SDS-PAGE; settings: CypA with Cysteine 52 mutated to Serine
T6 construct: made in house
T6 sequence (P62937 whole entry C52S): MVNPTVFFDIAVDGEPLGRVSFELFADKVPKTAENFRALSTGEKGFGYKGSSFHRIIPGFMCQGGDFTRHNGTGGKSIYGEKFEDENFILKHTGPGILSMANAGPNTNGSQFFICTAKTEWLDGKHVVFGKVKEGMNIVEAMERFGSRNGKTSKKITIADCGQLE
Protocol: (§3) Experimental Protocol: A 1:2 molar ratio of KRASGTP/G12C lite and SFAX9DS are mixed together in 12.5 mM HEPES pH 7.4, 75 mM NaCl buffer containing 2% DMSO. The reaction is incubated at 37° C. for 30 min, followed by overnight incubation at room temperature. Cross-linking efficiency is assessed by SDS-PAGE gel. […] Cysteine 52 as a reactive Cysteine on CypA and was mutated to Serine to abrogate presenter cross-linking.

Wild-type CypA = Wild-type CypA (Homo sapiens, UniProt P62937); assay: Presenter cross-linking assessed by SDS-PAGE
Chain of Wild-type CypA (P62937 whole entry): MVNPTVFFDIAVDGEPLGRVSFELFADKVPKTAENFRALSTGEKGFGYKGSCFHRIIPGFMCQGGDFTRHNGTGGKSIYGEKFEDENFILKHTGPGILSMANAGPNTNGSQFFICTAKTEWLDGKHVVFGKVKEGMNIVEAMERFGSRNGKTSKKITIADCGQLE
Protocol: as §3

KRASGTP/G12C lite = target: T7, KRASGTP/G12C lite (Homo sapiens, UniProt P01116, C118S/C51S/C80L/G12C); assay: Conjugate formation (cross-linking) assessed by SDS-PAGE; settings: 1:2 molar ratio protein:compound, 37° C. 30 min then overnight room temperature
T7 construct: KRASGTP/G12C lite (in house; residues 1-169 containing G12C/C51S/C80L/C118S); made in house
Protocol: as §1, §3

SMILES: CCC(C)(C)C(=O)C(=O)N1CCCC[C@H]1C(=O)OCCCC(=O)NCCSSc1ccccn1 [Compound C2Holt]
Formation of ternary complex [1]: confirm the formation

SMILES: CCC(C)(C)C(=O)C(=O)N1CCCC[C@H]1C(=O)O[C@H](CCc1ccc(OC)c(OC)c1)c1cccc(NC(=O)CCSSc2ccccn2)c1 [Compound C3SLF]
Formation of ternary complex [2]: confirm the formation
% xlink to KRAS (KRASGTP/G12C [3]; FKBP12 + (10 μM)): 47.5%
% xlink to KRAS (KRASGTP/G12C [3]; FKBP12 − (absent)): 9.6%
Ligand cross-linking efficiency in presence vs absence of FKBP12 (KRASGTP/G12C [4]): boosted significantly

SMILES: CCC(C)(C)C(=O)C(=O)N1CCCC[C@H]1C(=O)O[C@H](CCc1ccc(OC)c(OC)c1)c1cccc(NC(=O)CCCSSc2ccccn2)c1 [Compound C4SLF, (R)-3-(3,4-dimethoxyphenyl)-1-(3-(4-(pyridin-2-yldisulfanyl)butanamido)phenyl)propyl (S)-1-(3,3-dimethyl-2-oxopentanoyl)piperidine-2-carboxylate]
% xlink to KRAS (KRASGTP/G12C [3]; FKBP12 + (10 μM)): 69.8%
% xlink to KRAS (KRASGTP/G12C [3]; FKBP12 − (absent)): 7.0%
Ligand cross-linking efficiency in presence vs absence of FKBP12 (KRASGTP/G12C [4]): boosted significantly

Results, then the compound that gave them:

Cross-linking efficiency (KRASGTP/S39C lite; 1:2 molar ratio protein:compound, 37° C. 30 min then overnight room temperature, SDS-PAGE): cross-links efficiently
Cys specific attachment of the compound (KRASGTP/S39C lite; SDS-PAGE after 100 mM DTT): specific for Cysteine 39
SMILES: CO[C@H]1C[C@@H](C)C/C(C)=C/[C@@H](CCCC(=O)NCCSSc2ccccn2)C(=O)C[C@H](O)[C@@H](C)[C@@H](/C(C)=C/[C@@H]2CC[C@@H](O)[C@H](OC)C2)OC(=O)[C@@H]2CCCCN2C(=O)C(=O)[C@]2(O)O[C@H]1[C@@H](OC)C[C@H]2C [Compound C2-FK506]

Formation of ternary complex [5]: confirm the formation
SMILES: COC(=O)[C@@H]1CCCN(C(=O)[C@H](Cc2cccc(O)c2)NC(=O)[C@@H](NC(=O)CCCSSc2ccccn2)C(C)C)N1 [SFAC4DS]

Cross-linking to presenter protein (CypAC52S): does not cross-link
Cross-linking to presenter protein (Wild-type CypA): also cross-linked
Cross-linking efficiency (KRASGTP/G12C lite): cross-links efficiently
SMILES: COC(=O)[C@@H]1CCCN(C(=O)[C@H](Cc2cccc(O)c2)NC(=O)[C@@H](NC(=O)CCOCCOCCSSc2ccccn2)C(C)C)N1 [SFAX9DS]
